Test results: patent US6730480B1, “Sphingosine kinase enzyme” (Johnson & Johnson Pharmaceutical Research and Development …, priority 1999, dated 2004)
“Also recorded” adds a separate entry of the source.

Key:
[1] = target: T1, native sphingosine kinase (human placenta SK1) (Homo sapiens, UniProt Q9NYA1); test: Sphingosine kinase enzyme assay with native SK purified from human placenta; assay type: biochemical; conditions: for Substrate specificity (phosphorylation by the enzyme): substrates at 100 μM in 0.25% Triton X-100, relative to sphingosine; for Effect of phospholipid on sphingosine kinase activity: phospholipid at 10 mol% of Triton X-100; for Metal ion requirement (sphingosine kinase activity): metal ions or EDTA at 10 mM; for kcat: Triton X-100 mixed micelles; for Km (mol %) / Km: substrate kinetics; for Km (mol %): mol % of Triton X-100 (0.25% w/v)
T1 construct: from tissue; host or cells: human placenta
T1 sequence (Q9NYA1 whole entry): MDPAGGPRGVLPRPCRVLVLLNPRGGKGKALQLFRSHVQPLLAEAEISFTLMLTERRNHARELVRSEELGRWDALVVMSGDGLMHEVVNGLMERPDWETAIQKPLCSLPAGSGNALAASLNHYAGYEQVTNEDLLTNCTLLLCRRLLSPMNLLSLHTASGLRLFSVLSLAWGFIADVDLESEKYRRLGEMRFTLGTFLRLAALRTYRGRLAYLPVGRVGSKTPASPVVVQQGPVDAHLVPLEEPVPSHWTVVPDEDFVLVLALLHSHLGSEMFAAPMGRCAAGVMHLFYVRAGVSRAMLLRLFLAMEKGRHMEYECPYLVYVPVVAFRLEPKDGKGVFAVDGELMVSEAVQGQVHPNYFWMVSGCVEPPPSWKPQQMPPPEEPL
Description: Sphingosine kinase activity was routinely determined using D-erythro-sphingosine and [γ^32P]ATP as substrates, essentially as previously described (Olivera et al., 1998) with some modifications. […] Reactions were terminated and sphingosine-1-phosphate extracted by the addition of 700 μl of chloroform/methanol/HCl (100:200:1. v/v), followed by vigorous mixing, addition of 200 μp of chloroform and 200 μl of 2 M KCl, and phase separation by centrifugation. […] Sunnyvale, Calif.). One unit (U) of activity is defined as 1pmol of S1P formed per minute. […] Similarly, thermal stabilities were determined by assaying the residual activity after pre-incubation of the enzymes at various temperatures (4-80° C.) for 30 min at pH 7.4 (50 mM Tris/HCl containing 10% glycerol, 0.5 M NaCl and 0.05% Triton X-100). Substrate kinetics were analysed using Michaelis-Menten kinetics with a weighted non-linear regression program (Easterby, 1996). […] In both cases the data were analysed by non-linear regression. The effect of metal ions on the activity of the native and recombinant sphingosine kinases were determined by assaying the activity under standard conditions in the presence of various metal ions or EDTA at 10 mM. […] PC, phosphatidylcholine; PS phosphatidylserine; PE, […]; PI, phosphatidylinositol.

[2] = target: T2, recombinant human sphingosine kinase (Homo sapiens, UniProt Q9NYA1); test: Sphingosine kinase enzyme assay with recombinant human SK expressed in E. coli; assay type: biochemical; conditions: for Substrate specificity (phosphorylation by the enzyme): substrates at 100 μM in 0.25% Triton X-100, relative to sphingosine; for Effect of phospholipid on sphingosine kinase activity: phospholipid at 10 mol% of Triton X-100; for Metal ion requirement (sphingosine kinase activity): metal ions or EDTA at 10 mM; for kcat: Triton X-100 mixed micelles; for Km (mol %) / Km: substrate kinetics; for Km (mol %): mol % of Triton X-100 (0.25% w/v)
T2 construct: The full length SPHK cDNA cloned into pGEX4T2 was transformed into E. coli BL21; GST (N, cleaved yes); made in house; host or cells: E. coli BL21
T2 sequence (Q9NYA1 whole entry): as above
Description: Sphingosine kinase activity was routinely determined using D-erythro-sphingosine and [γ^32P]ATP as substrates, essentially as previously described (Olivera et al., 1998) with some modifications. […] Reactions were terminated and sphingosine-1-phosphate extracted by the addition of 700 μl of chloroform/methanol/HCl (100:200:1. v/v), followed by vigorous mixing, addition of 200 μp of chloroform and 200 μl of 2 M KCl, and phase separation by centrifugation. […] Sunnyvale, Calif.). One unit (U) of activity is defined as 1pmol of S1P formed per minute. The full length SPHK cDNA cloned into pGEX4[…]. coli BL21. Overnight cultures (100 ml) of transformed isolates were grown with shaking (200 rpm) at 30° C. in Superbroth (20 g/L glucose, 35 g/L tryptone, 20 g/L yeast extract, 5 g/L NaCl, pH 7.5) medium containing ampicillin (100 mg/L). The cultures were diluted 1:20 in fresh medium and grown at 30° C. with shaking to an OD600 of 0.6-0.7. Expression of the glutathione-s-transferase (GST)-coupled sphingosine kinase (GST-SK) was then induced by addition of 0.1 mM isopropyl-β-D-thiogalactoside and further incubation of the cultures at 30° C. for 3 h. After this time the bacterial cells were then harvested by centrifugation at 6,000 g for 20 min at 4° C. and resuspended in 20 ml of buffer B containing 250 mM NaCl. the cells were then lysed with lysozyme at a final concentration of 0.3 mg/ml for 15 min at 25° C. followed by sonication, consisting of three cycles of 20 s ultrasonic pulses followed by one minute cooling. The lysate was then clarified by centrifugation at 50,000 g for 45 min at 4° C., followed by filtrating through 0.22 μm filters. To be filtered supernatant was then incubated with 0.2 volumes of 50% (w/v) glutathione-Sepharose 4B (Pharmacia) that was washed and pro-equilibrated with buffer B, for 60 min at 4° C. with constant mixing. After this time the mixture was poured into a glass chromatography column (10 mm diam.) and the beads (with bound GST-SK) washed with 10 column volumes of buffer B at 4° C. The GST-SK was then eluted from the column in 10 ml of buffer B containing 10 mM reduced glutathione. Cleavage of the GST away from sphingosine kinase was then performed by incubation with 20 μg (30 N.I.H. units) thrombin (Pharmacia) for 3 h at 25° C. The released sphingosine kinase was then purified by application of the cleavage mix to a calmodulin-Sepharose column and then a Mono-Q anion exchange column for the purification of the sphingosine kinase from human placenta. […] Similarly, thermal stabilities were determined by assaying the residual activity after pre-incubation of the enzymes at various temperatures (4-80° C.) for 30 min at pH 7.4 (50 mM Tris/HCl containing 10% glycerol, 0.5 M NaCl and 0.05% Triton X-100). Substrate kinetics were analysed using Michaelis-Menten kinetics with a weighted non-linear regression program (Easterby, 1996). […] In both cases the data were analysed by non-linear regression. The effect of metal ions on the activity of the native and recombinant sphingosine kinases were determined by assaying the activity under standard conditions in the presence of various metal ions or EDTA at 10 mM. […] PC, phosphatidylcholine; PS phosphatidylserine; PE, […]; PI, phosphatidylinositol.

[3] = inhibitor 2 to 50 μM, mol % of Triton X-100
[4] = listed as N,N,N, -trimethylsphingosinei
[5] = ADP 0.1 to 5 mM, with respect to ATP

## CCCCCCCC/C=C\CCCCCCCC(=O)OC[C@H](CO)OC(=O)CCCCCCC/C=C\CCCCCCCC [1,2-dioleoyl-sn-glycerol]
[1]
  Substrate specificity (phosphorylation by the enzyme): not phosphorylated; also recorded: No phosphorylation
[2]
  Substrate specificity (phosphorylation by the enzyme): not phosphorylated; also recorded: No phosphorylation

## L-α-phosphatidyldethanolamine
[1]
  Effect of phospholipid on sphingosine kinase activity: did not result in any detectable differences
[2]
  Effect of phospholipid on sphingosine kinase activity: did not result in any detectable differences

## [Mg+2] [Mg^2+]
[1]
  Metal ion requirement (sphingosine kinase activity): highest activity
[2]
  Metal ion requirement (sphingosine kinase activity): highest activity

## CCCCCCCCCCCCC/C=C/[C@@H](O)[C@H](CO)[N+](C)(C)C [N,N,N-trimethylsphingosine]
[1]
  Inhibition of sphingosine kinase (kind of inhibition): competitive inhibition
  Substrate specificity (phosphorylation by the enzyme): not phosphorylated
[1]; bulk solution concentration
  Ki: 4.6 ± 1 µM
[1]; [3]
  Ki (mol %): 0.12 ± 0.03 mol %
[1]; [4]
  Substrate specificity (phosphorylation by the enzyme): No phosphorylation
[2]
  Inhibition of sphingosine kinase (kind of inhibition): competitive inhibition
  Substrate specificity (phosphorylation by the enzyme): not phosphorylated
[2]; bulk solution concentration
  Ki: 3.8 ± 1 µM
[2]; [3]
  Ki (mol %): 0.10 ± 0.02 mol %
[2]; [4]
  Substrate specificity (phosphorylation by the enzyme): No phosphorylation

## L-α-phosphatidylcholine
[1]
  Effect of phospholipid on sphingosine kinase activity: did not result in any detectable differences
[2]
  Effect of phospholipid on sphingosine kinase activity: did not result in any detectable differences

## CCCCCCCCCCCCC/C=C/[C@@H](O)[C@@H](N)CO [Sphingosine, D-erythro-Sphingosine]
[1]
  kcat: 50 S^−1
  Km (mol %): 0.35 ± 0.05 mol %
  Substrate specificity (phosphorylation by the enzyme): greatest activity
[2]
  kcat: 85 S^−1
  Km (mol %): 0.30 ± 0.07 mol %
  Substrate specificity (phosphorylation by the enzyme): greatest activity

## CCCC[C@@H](C)[C@@H](OC(=O)C[C@@H](CC(=O)O)C(=O)O)[C@H](C[C@@H](C)C[C@H](O)CCCC[C@@H](O)C[C@H](O)[C@H](C)N)OC(=O)C[C@@H](CC(=O)O)C(=O)O [Fumosin B1]
[1]
  Inhibition of sphingosine kinase (kind of inhibition): No inhibition
[2]
  Inhibition of sphingosine kinase (kind of inhibition): No inhibition

## [Ca+2] [Ca^2+]
[1]
  Metal ion requirement (sphingosine kinase activity): only very low activity
[2]
  Metal ion requirement (sphingosine kinase activity): only very low activity

## CCCCCCCCCCCCCCC[C@@H](O)[C@@H](N)CO [Dihydrosphingosine, D-erythro-dihydrosphingosine]
[1]
  kcat: 35 S^−1
  Km (mol %): 0.50 ± 0.05 mol %
  Substrate specificity (phosphorylation by the enzyme): greatest activity
[1]; bulk solution concentration
  Km: 20 ± 2 µM
[2]
  kcat: 76 S^−1
  Km (mol %): 0.48 ± 0.05 mol %
  Substrate specificity (phosphorylation by the enzyme): greatest activity
[2]; bulk solution concentration
  Km: 19 ± 2 µM

## [Fe+2] [Fe^2+]
[1]
  Metal ion requirement (sphingosine kinase activity): did not support sphingosine kinase activity
[2]
  Metal ion requirement (sphingosine kinase activity): did not support sphingosine kinase activity

## CCCCCCCC(=O)OC[C@H](CO)OC(=O)CCCCCCC [1,2-dioctanoyl-sn-glycerol]
[1]
  Substrate specificity (phosphorylation by the enzyme): not phosphorylated; also recorded: No phosphorylation
[2]
  Substrate specificity (phosphorylation by the enzyme): not phosphorylated; also recorded: No phosphorylation

## CCCCCCCCCCCCC/C=C/[C@@H](O)[C@H](CO)NC(C)=O [N-acetylsphingosine]
[1]
  Inhibition of sphingosine kinase (kind of inhibition): No inhibition
  Substrate specificity (phosphorylation by the enzyme): not phosphorylated; also recorded: No phosphorylation
[2]
  Inhibition of sphingosine kinase (kind of inhibition): No inhibition
  Substrate specificity (phosphorylation by the enzyme): not phosphorylated; also recorded: No phosphorylation

## Nc1ncnc2c1ncn2[C@@H]1O[C@H](COP(=O)(O)OP(=O)(O)O)[C@@H](O)[C@H]1O [ADP]
[1]
  Inhibition of sphingosine kinase (kind of inhibition): weak competitive inhibition
[1]; [5]
  Ki: 1100 ± 300 µM
[2]
  Inhibition of sphingosine kinase (kind of inhibition): weak competitive inhibition
[2]; [5]
  Ki: 900 ± 200 µM

## CCCCCCCCCCCCCCC[C@H](O)[C@@H](N)CO (racemic) [DL-threo-dihydrosphingosine]
[1]
  Inhibition of sphingosine kinase (kind of inhibition): competitive inhibition
  Substrate specificity (phosphorylation by the enzyme): not phosphorylated; also recorded: No phosphorylation
[2]
  Inhibition of sphingosine kinase (kind of inhibition): competitive inhibition
  Substrate specificity (phosphorylation by the enzyme): not phosphorylated; also recorded: No phosphorylation

## CCCCCCCCCCCCCC[C@@H](O)[C@@H](O)[C@@H](N)CO [phytosphingosine, Phytosphingosine]
[1]
  Substrate specificity (phosphorylation by the enzyme): Low activity
[2]
  Substrate specificity (phosphorylation by the enzyme): Low activity

## [Mn+2] [Mn^2−]
[1]
  Metal ion requirement (sphingosine kinase activity): somewhat lower activity
[2]
  Metal ion requirement (sphingosine kinase activity): somewhat lower activity

## [Zn+2] [ZN^2−]
[1]
  Metal ion requirement (sphingosine kinase activity): did not support sphingosine kinase activity
[2]
  Metal ion requirement (sphingosine kinase activity): did not support sphingosine kinase activity

## Nc1ncnc2c1ncn2[C@@H]1O[C@H](COP(=O)(O)OP(=O)(O)OP(=O)(O)O)[C@@H](O)[C@H]1O [ATP]
[1]; bulk solution concentration
  Km: 77 ± 11 µM
[2]; bulk solution concentration
  Km: 86 ± 12 µM

## L-α-phosphatidylinositol
[1]
  Substrate specificity (phosphorylation by the enzyme): not phosphorylated; also recorded: No phosphorylation
[2]
  Substrate specificity (phosphorylation by the enzyme): not phosphorylated; also recorded: No phosphorylation

## [Cu+2] [Cu^2−]
[1]
  Metal ion requirement (sphingosine kinase activity): did not support sphingosine kinase activity
[2]
  Metal ion requirement (sphingosine kinase activity): did not support sphingosine kinase activity

## O=C(O)CN(CCN(CC(=O)O)CC(=O)O)CC(=O)O [EDTA]
[1]
  Metal ion requirement (sphingosine kinase activity): elimated activity
[2]
  Metal ion requirement (sphingosine kinase activity): elimated activity
